This is an account of results in patent publication US9296687B2, “Modulators of HSP70/DnaK function and methods of use thereof” (The Trustees of the University of Pennsylvania, priority 2008, dated 2016).

Assay [1] has as its system p62/SQSTM1, LC3. The experiment in a line: Autophagy markers in cultured cells (vacuoles, LC3-II, p62/SQSTM1, electron microscopy). Type of assay: cell-based, human.
Assay [2] deals with 20S proteasome. The experiment in a line: Cell-based 20S proteasome activity assay. Also on record: species or system human. The following applies: H1299 or A875 cells; PES 20 μM, 17-AAG 1 μM, CQ 5 μM.
Assay [3] has as its target DnaK (Escherichia coli, UniProt P0A6Y8). Kind of assay: Identification of B-PES interacting protein in bacteria by LC-tandem MS. The following applies: E. coli DH5α, 50 μM B-PES, 3 h.
Assay [4] has as its system MCF7 human breast carcinoma cells. Kind of assay: MTT assay, PES followed by 17-AAG. The assay is classed as cell-based. Particulars: 5 μM PES 1 h, then 17-AAG 47 h. As for the experimental part: FIG. 17. PES impairs the proteasome system. (A) Cell-based 20S proteasome activity assay of H1299 or A875 human tumor cells treated with DMSO, 20 μM PES, 100 nM Velcade (proteasome inhibitor), 1 μM 17-AAG (HSP90 inhibitor), 5 μM CQ (lysosome inhibitor), or 20S proteasome inhibitor epigallocatechin gallate (EGCG). Each graphical representation indicates the mean±SD of at least three independent cultures relative to control (DMSO-treated) cells. (B) Cell extracts from SKBR3 human breast carcinoma cells, treated either with 20 μM PES or 1 μM 17-AAG for 24 h, were immunoprecipitated (IP) using anti-HSP70 or anti-HSP90 antibody. […] MTT assays of MCF7 human breast carcinoma cells pretreated with DMSO, or 5 μM PES for 1 h, followed by the addition of indicated amount of 17-AAG for 47 h. The results represent the mean±SD of at least three independent analysis of cultures relative to control (DMSO-treated) cells. […]
Cell viability assays were performed using an MTT (methyl thiazolyl tetrazolium) colorimetric assay (Roche Applied Science, Cat. No. 11 465 007 001), with the following modifications. […] The metabolized insoluble formazan crystals were then solubilized using 0.5 ml of the Solubilization solution (10% SDS in 0.01M HCl) per well, and the resulting colored solutions were spectrophotometrically quantified at an absorbance of 570 nm.
A general note: Tetrazolium dyes change colour on reduction, which living cells bring about.

For assay [5], the system named is cathepsin L. Kind of assay: Western blot of cathepsin L processing. The assay is classed as cell-based, human. Particulars: 20 μM, 24 h.
Assay [6] deals with H1299 and FaDu; 6113 and WI38. The experiment in a line: MTT assay, tumorogenic versus normal fibroblast cell lines. The assay is classed as cell-based, human. The following applies: various concentrations, 48 hours. As for the experimental part: H1299 cells were seeded on […] and treated with 10 μM PES or 10 μM PES-Cl. DMSO treated cells were used as a control and the proliferation of the H1299 cells was observed over 24 and 48 hours of treatment. The cells were imaged by light microscopy with 20× magnification (FIG. 28). Non-tumorogenic and tumorogenic cells were then treated with PES-Cl to observe its toxicity and effect on proliferation. Two tumorogenic cell lines (H1299 and FaDu) and two normal fibroblast cell lines (6113 and WI38) were seeded on a 96-well plate. The cells were treated with various concentrations of PES and PES-Cl. Forty-eight hours post-treatment MTT assays (Cayman Chemical Company) were performed (FIG. 29).

In assay [7] the target is HSP70 (Homo sapiens, UniProt P0DMV8). The experiment in a line: Competition of untagged PES with B-PES for HSP70. Also noted: endogenous in cells; host or cells: human tumor cell lines (A875, BX-U2OS, U2OS, H1299, MiaPaCa2, HepG2, SKBR3, 293T). The assay is classed as binding. As to the method: FIG. 15. Evidence supporting HSP70 as the cellular target of PES. (A) Competition studies in vivo support HSP70 as a PES target. H1299 cells were either pre-treated with DMSO or excess (25×) untagged PES for 1 h prior to the addition of 20 μM Biotin-PES (B-PES) for 5 h, and examined for the expression of proteins indicated (left). B-PES-containing complexes were captured by NeutrAvidin Resins, and immunoblotted using the indicated antibodies. […] (B) Competition studies in vitro support HSP70 as a PES target. Purified HSP70 protein was incubated with 0.25 mM B-PES in the absence and in the presence of 0.125 mM untagged PES.

Assay [8] concerns E. coli. The experiment in a line: Growth curves and morphology of E. coli at 35° C. or 43° C. Type of assay: cell-based. As to the method:
FIG. 3. PES and E. coli. (A) Identification of DnaK as Biotin-PES (B-PES) interacting protein in bacteria by liquid chromatography-tandem mass spectrometry, as described herein below. (B) The amino acid sequence of DnaK (SEQ ID NO: 7); the residues detected by mass spectrometry are shown in bold and underlined. (C) Growth curves of E. coli treated with different concentrations of PES either at 35° C. or 43° C. […] (D) Bacterial morphology (phase contrast microscopy) following treatment of the cells with PES at the indicated temperatures. Note evidence of filamentation and aggregation at higher concentrations of PES, especially at 43° C.

Chain of HSP70 (P0DMV8 whole entry): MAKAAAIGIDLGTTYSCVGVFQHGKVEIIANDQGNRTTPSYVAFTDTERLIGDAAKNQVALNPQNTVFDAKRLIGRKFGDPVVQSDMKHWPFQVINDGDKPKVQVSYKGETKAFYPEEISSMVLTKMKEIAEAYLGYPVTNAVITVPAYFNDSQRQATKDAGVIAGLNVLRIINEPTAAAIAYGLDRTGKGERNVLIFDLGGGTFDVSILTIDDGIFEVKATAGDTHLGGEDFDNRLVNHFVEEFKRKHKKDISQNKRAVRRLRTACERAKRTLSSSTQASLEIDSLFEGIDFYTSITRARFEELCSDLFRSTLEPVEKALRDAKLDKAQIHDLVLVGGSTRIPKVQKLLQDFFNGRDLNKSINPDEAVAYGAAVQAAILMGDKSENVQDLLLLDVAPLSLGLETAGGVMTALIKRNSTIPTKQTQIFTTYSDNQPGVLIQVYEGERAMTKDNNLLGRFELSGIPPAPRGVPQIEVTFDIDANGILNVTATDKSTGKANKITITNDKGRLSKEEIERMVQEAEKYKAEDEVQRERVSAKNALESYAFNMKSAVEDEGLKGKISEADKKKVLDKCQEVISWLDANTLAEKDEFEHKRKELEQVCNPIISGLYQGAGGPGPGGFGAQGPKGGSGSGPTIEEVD
Chain of DnaK (P0A6Y8 whole entry): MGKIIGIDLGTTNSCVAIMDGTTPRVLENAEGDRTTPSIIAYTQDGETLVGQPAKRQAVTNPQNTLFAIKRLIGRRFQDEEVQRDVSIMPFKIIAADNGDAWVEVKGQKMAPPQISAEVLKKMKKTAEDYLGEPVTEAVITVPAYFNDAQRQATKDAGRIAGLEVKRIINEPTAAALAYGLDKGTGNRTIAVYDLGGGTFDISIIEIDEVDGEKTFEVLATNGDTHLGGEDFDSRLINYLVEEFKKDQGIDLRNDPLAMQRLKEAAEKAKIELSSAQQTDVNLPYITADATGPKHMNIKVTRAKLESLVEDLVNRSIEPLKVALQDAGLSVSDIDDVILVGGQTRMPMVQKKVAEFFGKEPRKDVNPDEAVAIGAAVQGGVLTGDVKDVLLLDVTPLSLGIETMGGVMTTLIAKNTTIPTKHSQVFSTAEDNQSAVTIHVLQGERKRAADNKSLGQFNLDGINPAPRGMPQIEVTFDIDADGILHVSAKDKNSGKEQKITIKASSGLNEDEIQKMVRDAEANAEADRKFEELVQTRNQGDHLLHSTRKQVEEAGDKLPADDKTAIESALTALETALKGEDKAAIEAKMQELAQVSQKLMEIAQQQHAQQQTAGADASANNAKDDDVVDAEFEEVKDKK

`NS(=O)(=O)C#Cc1ccccc1` [PES, 2-Phenylethynesulfonamide]: the LC3-II level result in assay [1] (20 μM) was “higher levels of LC3-II”. Besides, in assay [1] (20 μM, 7 or 24 h), the “autophagosomes and autophagolysosomes by electron microscopy” value is “rapid and substantial increase in multiple double-membrane autophagosomes and single-membrane autophagolysosomes”. Besides, the intracytoplasmic vacuoles entry in assay [1] (24 h) is listed as “progressive accumulation of intracytoplasmic vacuoles”. Further, in assay [1] (24 h, PES 20 μM, Velcade 100 nM, CQ 50 μM, 17-AAG 15 nM), the “p62/SQSTM1 oligomers in soluble and detergent-insoluble fractions” value is “higher molecular weight forms of p62/SQSTM1 in both the soluble and detergent-insoluble fractions”. For the same molecule, the “p62/SQSTM1 accumulation and oligomerization” value in assay [1] (H1299 cells, increasing concentrations, 24 h) was “notable increase in p62/SQSTM1 accumulation and oligomerization”. Moreover, the “p62 oligomerization and LC3-II accumulation” value in assay [1] (IMR90 cells, 24 h) is “only a modest degree of p62 oligomerization and LC3-II accumulation”. In addition, the “interaction between LC3 and p62/SQSTM1” value in assay [1] (IP-WB, MiaPaCa2, A875) is “enhanced the interaction”. Also, the “accumulation and oligomerization of p62/SQSTM1” value in assay [1] (western blot) was “promotes an accumulation and oligomerization of p62/SQSTM1 in a time- and dose-dependent manner”. In assay [2], the “activity of the 20S proteasome” value is on record as “impairs the activity of the 20S proteasome”. Further, the “interaction with DnaK” value in assay [3] is on record as “interacts with DnaK”. In assay [4], the “cell killing by 17-AAG” value is recorded as “sensitizes cells to cell killing by 17-AAG”. Further, in assay [5], the “processing of cathepsin L” value is “accumulation of the precursor pro-cathepsin L and a markedly reduced abundance of the smaller, mature form of the enzyme”. Besides, the “cell survival, tumorogenic versus non-tumorogenic cells” value in assay [6] was “greater concentration dependent effect on cell survival in tumorogenic cells”. Moreover, the “binding of HSP70 to B-PES matrix with competitor” value in assay [7] (H1299 cells, excess (25×) untagged PES 1 h, then 20 μM B-PES 5 h) is listed as “Binding of HSP70 to the matrix is reduced”. Besides, the B-PES/HSP70 complex formation entry in assay [7] (purified HSP70, 0.25 mM B-PES, 0.125 mM untagged PES) was “reduces B-PES/HSP70 complex formation”. For the same molecule, the “response of the bacteria to elevated temperatures” value in assay [8] was “slow growth, filamentation, and reduced viability”. The “cell proliferation of E. coli” value in assay [8] (increasing concentrations, 35° C. or 43° C.) was “inhibited in a dose-dependent fashion”.
